Data set [1] deals with NF-κB. The data set is described as follows: Luciferase assay in TNF-α inflamed C2C12/NF-κB reporter cells. The note with it: 100 and 500 nM, and 1 μM; 24 hours; 10 ng/mL TNF-α; vs DMSO+TNF-α. Type of data set: cell-based, mouse. The protocol:
Cell culture and Luciferase assay. The C2C12/NF-κB reporter cells were grown in DMEM supplemented with 10% FBS and 1% penicillin/streptomycin. Puromycin selection of the cells was performed by adding 2 μg/mL to the media, and the C2C12 cells with the NF-κB reporter gene were selected for further culturing. Cells were plated at 40,000 cells per well for the initial seeding density using a 24-well format. To induce inflammation, TNF-α was added at a concentration of 10 ng/mL, and simultaneously, the cells were treated with the vehicle control (DMSO or blank NPs), P7C3 solution, and P7C3 NPs. […] After 24 hours, the luciferase assay was conducted per manufacturer protocol (Promega Luciferase Assay System, USA). Using a Synergy H1 Hybrid Multi-Mode Reader, the luminescence of the cell lysate in the opaque 96-well plate was measured. Protein in the cell lysates was measured using a Pierce™ 660 nm protein assay. The luciferase activity was calculated after normalization with protein concentration.

The test system of data set [2] is Nampt+/− and littermate WT mice. The data set is described as follows: Glucose tolerance test in Nampt+/- and littermate WT mice. Type of data set: in vivo. The note with it: vs vehicle.
For data set [3], the system named is C2C12 cells. The data set is described as follows: MTT cytotoxicity study in C2C12 cells. Type of data set: cell-based, mouse. The protocol: Cytotoxicity study. The cytotoxicity of P7C3 nanoparticles (P7C3 NP), and the skeletal muscle-specific aptamer-based targeted P7C3 nanoparticles (P7C3 NP Apt) were determined using the MTT assay in C2C12 cells and was compared with the P7C3 solution, DMSO and control media. Briefly, the mouse C2C12 myoblasts were seeded at a seeding density of 10,000 cells/well in three 96-well plates (Corning, N.Y., USA) in 100 μl of growth medium, i.e., DMEM F12 supplemented with 10% FBS, and 1% P/S and were allowed to grow for 24, 48, and 72 h after an initial attachment period of 24 h, which was considered as time 0. […] The 0 nM concentration had the solvent vehicle control DMSO, in which the drugs P7C3, 7C3 NPs, and P7C3 NPs Apt were dissolved. The MTT reagent solution (1 mg/mL) was added to each well after 24, 48, and 72 h of cell proliferation and the assay was performed according to the manufacturer's protocol (Thermo Fisher Scientific CyQUANT™ MTT Cell Viability Assay kit, USA). The spectrophotometer reading was measured at 540 nm wavelength using a Synergy H1 Hybrid Multi-Mode Reader. Cell viability was calculated and plotted, considering the optical density of solvent vehicle control DMSO wells as 100% viable.

Data set [4] concerns db/db mice. The data set is described as follows: Echocardiography, body and heart weight in db/db mice. In kind it is in vivo. As to conditions: 10 mg/kg/day i.p., four-weeks. As to the method: Echocardiography. Serial […] echocardiography was conducted under 2-3% isoflurane/oxygen anesthesia using a Visualsonic Vevo 770 system equipped with 30 MHz linear signal transducer (Toronto, Ontario, Canada). The mice were depilated as required for imaging and before placing on a 37° C. heated platform. Echo measurements were taken from at least three different cardiac cycles for each mouse. M-mode imaging from short-axis of the left ventricle (LV), using the papillary muscles for reference, was used to obtain measurements. Fractional shortening (FS %) and ejection fraction (EF %) were calculated as previously described.

Data set [5] deals with db/db mice. The data set is described as follows: Pancreatic β cells immunostaining and Gomori aldehyde fuchsin staining in db/db mice. In kind it is in vivo. The note with it: 4 weeks. The protocol:
Immunostaining. Immunostaining of the pancreas was performed for the measurement of insulin secreting β cells area, as previously described. Briefly, the frozen pancreatic tissues were fixed into tissue freezing media (TFM). Pancreas were cut into 10 μm thick sections and kept at −80° C. For immunostaining, the slides were first air dried and washed with phosphate buffer saline (PBS). The sections were then fixed in 4% paraformaldehyde for 30 min and blocked with SuperBlock™ T20 (TBS) blocking buffer (Thermo scientific, MA, USA) for 30 min, at room temperature (RT). Slides were then incubated with insulin primary antibody (sc-9168, Santa Cruz, TX, USA) diluted in blocking buffer (1:200), overnight at 4° C. Slides were then washed in PBS and incubated with Alexa Fluor®488 secondary antibody (Abcam, Mass., USA) diluted in blocking buffer for 1 h at RT. Following washes, the slides were then mounted with ProLong® Gold antifade mountant containing DAPI (Molecular Probe, OR, USA). Nuclei were labelled by DAPI. The images obtained with confocal multiphoton laser scanning microscope (Olympus FV1000 MPE, Olympus Inc., USA) were quantified by using ImageJ software (NIH, USA). The cross-sectional areas of pancreas and β cells were determined from multiple sections (n=3 mice per group), separated by at least 50 μm from each section. Pancreatic β cell area was calculated by using the following formula: islet β cell area (%)=(area stained by insulin anti-body/total islets area)×100.
Gomori aldehyde fuchsin staining. The Gomori aldehyde fuchsin staining of the pancreatic β cells was performed as per previously published protocol. Briefly, the frozen pancreas was TFM embedded and cut into 6 μm thick transverse serial cryosections using Microm cryostat machine. The slides were air dried at 60° C. and dewaxed using xylene and then hydrated through decreasing concentrations of ethyl alcohol. The slides were then rinsed in cold tap water followed by a single rinse in 50% ethanol and immersed in aldehyde fuchsin (Electron Microscopy Services, PA, USA) for 1 h. The excess stain was removed by rinsing in 70% ethanol and tap water. The slides were then counter-stained with Light Green (American Master Tech Scientific, CA, USA) through immersion for 60 s and dehydrated with increasing concentration of ethanol, and cleared with xylene. The sections were then mounted with disterene phthalate xylene (DPX) mountant (Sigma-Aldrich, MO, USA). Images were obtained at ×20 magnification with the Olympus IX73 inverted microscope using CellSens Standard software (Olympus Soft Imaging Solution, USA) and quantified with ImageJ software (NIH, USA).

Data set [6] concerns C57Bl/6J wildtype hearts. The data set is described as follows: Ex vivo ischemia reperfusion, post-ischemia exposure in wildtype hearts. More on the design: species or system mice. As to the method:
Hearts undergoing ex vivo ischemia reperfusion protocol post-exposure with P7C3 (3 μM) were performed as defined above. Hearts were stabilized for 30 min before proceeding to the ischemic phase. Cardiac ischemia was induced by the pause in Krebs-Hanseleit buffer perfusion for 45 min. Reperfusion was induced with the induction of Krebs-Hanseleit buffer at a constant flow of ˜2.2 ml/min for 1 hour. Hearts that underwent P7C3 (3 μM) treatment received 1-hour reperfusion with P7C3 (3 μM) within the Krebs-Hanseleit buffer.

Take `OC(CNc1ccccc1)Cn1c2ccc(Br)cc2c2cc(Br)ccc21` (stereo not drawn) [P7C3, 3,6-Dibromo-a-[(phenylamino)methyl]-9H-carbazole-9-ethanol]: the “NF-κB activity (luciferase)” value in data set [1] is recorded as “significant decrease”. Besides, in data set [2] (Nampt littermate WT mice, single dose 10 mg/kg i/p), the “GTT circulating blood glucose levels” value is listed as “significant decrease”. Moreover, the “GTT percent AUC” value in data set [2] (Nampt littermate WT mice) is recorded as “significant decrease”. Moreover, in data set [2] (Nampt+/− mice, single dose 10 mg/kg i/p), the “GTT blood glucose levels” value was “did not show any significant effect”. The “GTT percent AUC” value in data set [2] (Nampt+/− mice) is “no significant differences”. The “cytotoxicity (MTT cell viability)” value in data set [3] (0, 10, 500, 1000 nM, 24, 48, 72 h) is “not toxic”. The cell viability entry in data set [3] (10 nM, 72 h, vs control cells) is given as “significantly higher”. In data set [4], the “ejection fraction (EF %)” value was “significantly increased” and the “fractional shortening (FS %)” value was “significantly increased”. For the same compound, in data set [5] (vs db-Veh), the “number of islet of Langerhans per tissue section” value is given as “significant increase”, the “number of β cells per islets of Langerhans” value is listed as “increased” and the “number of β cells per tissue section” value is reported as “significant increase”. Besides, in data set [5] (vs vehicle), the “insulin positive β cells area per islet of Langerhans area” value is “significant increase”. Further, the “overall ischemic injury (infarct)” value in data set [6] (WT hearts perfused post-ischemia with P7C3 3 μM, 60 mins reperfusion) was 22%. For the same compound, the “reduction of overall infarct size compared with reperfusion alone” value in data set [6] (post-ischemic exposure, wildtype hearts) is 2.5 fold.

The values are drawn from patent publication US20220370636A1, “NICOTINAMIDE ADENINE DINUCLEOTIDE ACTIVATOR AND USE THEREOF” (University of South Florida, priority 2021, published 2022).
